Tested on: chicken leukocytes
Test: cells
Format: cell-based
Conditions: for minimal effective concentration: Gallus gallus, Leukocyte, read-out: MSC (Minimum Stimulatory Concentration)
Method: Various compounds of Formula I were evaluated for in vitro T-lymphocyte blastogenic activity with chicken leukocytes according to the steps described in the following procedure:
(a) Exsanguination step. The leukocytes were obtained from 3-6 week old Hubbard/Peterson broiler chickens. Initially, the chickens were rendered unconscious in a CO2 chamber. The chickens were then exsanguinated via cardiac puncture. In the exsanguination procedure, a syringe was connected to a needle, and the needle was inserted into the area at the base of the neck under the “V” formed by the breast and sternum. After the needle was properly inserted, continuous vacuum was applied to a syringe (connected to the needle) by pulling back on the plunger. It is important to promptly carry out this withdrawal action, because there is only a 10-15 seconds time period after the blood has starting flowing into the syringe before the blood coagulates, and becomes unusable. As soon as the syringe is full (or prior to complete filling if too much time has elapsed such that the blood begins to coagulate), the whole uncoagulated blood is transferred to a tube having the anticoagulant EDTA therein. The tube is then rotated to mix the whole blood and the EDTA. Alternatively, the whole blood can be withdrawn directly into a vacuum container already having EDTA therein, rather than into a syringe.
(b) Leukocyte isolation step. Numerous methods for isolating leukocytes from (uncoagulated) whole blood are known in the art. In a preferred method, the sterile whole blood was combined with methylcellulose (1.5:1). Any blood containing clots was discarded. The mixture was centrifuged at 30×g for ten minutes (300 rpm on Beckman GS-6R centrifuge). The top layer (leukocytes in supernatant) was decanted into a sterile 50 ml conical tube, while taking care to prevent contamination of the sample by red blood cells. The decanted layer was then centrifuged at 200×g for ten minutes (1500 rpm on the Beckman GS-6R centrifuge). The supernatant liquid was discarded, and the resulting cell “pellet” was retained.
The cells were then washed in a solution containing 10 ml PBS (phosphate buffered saline) and Gentamycin (gentamicin sulfate) at a concentration of 50 μg/ml. This solution was centrifuged at 100×g (1000 rpm on the Beckman centrifuge) for five minutes, and the supernatant liquid was discarded. The washing step (including the centrifuging at 100×g) was repeated to ensure complete removal of the methylcellulose. The use of media such as DMEM ([…]) was avoided in the washing steps, since such media may cause agglutination of the white blood cells. Finally, the cells were then suspended in an appropriate media, such as RPMI 1640 tissue cell culture medium, supplemented with phenol red, NaHCO3, and L-Glutamide. Supplemented RPMI 1640 is available from Sigma-Aldrich Chemical Co.
(c) Cell counting and cell viability step. The cells were counted and checked for viability using the Trypan Blue method of exclusion. 0.1 ml of the cell suspension was placed in a 4-5 ml small culture tube along with 0.7 ml HBSS (Hank's Buffered Saline Solution), available from Sigma-Aldrich, and 0.2 ml of a 0.4% solution of aqueous Trypan Blue stain, available from GIBCO BRL, of Grand Island, N.Y. The components were mixed thoroughly but gently, and allowed to sit for 5 minutes (no longer than 15 minutes). The components should not be exposed to the stain for extended periods of time, because such extended exposure may permit viable cells, as well as non-viable cells, to take up dye.
A cover slip was placed on a Bright Line hemacytometer, available from Howser Scientific, and 10 μl of the mixture from the tube was transferred to each chamber. Non-viable cells appear blue under a microscope. The viable cells in one of the 16-square corners of the hemacytometer were then counted. […]

[1] = chicken leukocytes, read at 72 hours
[2] = Hubbard/Peterson broiler, chicken, 72 h

| Structure (SMILES) | MSC (Minimum Stimulatory Concentration) [1] | minimal effective concentration [1] | MTC (Maximum Tolerable Concentration prior to causing cytotoxicity) [2] | MTC (Maximum Tolerable Concentration prior to causing cytotoxicity) [1] |
| --- | --- | --- | --- | --- |
| CCOC(=O)[C@H]1CCCN(C(=O)C(C)c2ccccc2)C1 (mixture of isomers) [Example 58, (S)±Ethyl 1-(2-Phenylpropionyl)-3-piperidinecarboxylate] | 1000 ng/mL |  |  |  |
| CCOC(=O)C1CCCN(C(=O)c2ccccc2)C1 (centres unmarked) [Example 1, Ethyl 1-Benzoyl-3-piperidinecarboxylate] |  | 0.1 µg/mL | 10 µg/mL |  |
| CCOC(=O)C1CCCN(C(=O)c2ccsc2)C1 (centres unmarked) [Example 2, Ethyl 1-(3-thiophenecarbonyl)-3-piperidinecarboxylate] |  | 1 µg/mL | 1 µg/mL |  |
| CCOC(=O)C1CN(C(=O)c2ccccc2)CCC1=O (centres unmarked) [Example 3, Ethyl 1-Benzoyl-4-oxo-3-piperidinecarboxylate] |  | 0.01 µg/mL | 1 µg/mL |  |
| CCOC(=O)C1CCCN(C(=O)OCc2ccccc2)C1 (centres unmarked) [Example 4, Ethyl 1-Benzyloxycarbonyl-3-piperidinecarboxylate] |  | 1 µg/mL | 10 µg/mL |  |
| CCOC(=O)C1CCCN(C(=O)Cc2ccccc2)C1 (centres unmarked) [Example 6, Ethyl 1-Phenylacetyl-3-piperidinecarboxylate] | 100 ng/mL |  |  | 1 µg/mL |
| CCOC(=O)C1CCCN(C(=O)c2ccc(F)cc2)C1 (centres unmarked) [Example 7, Ethyl 1-(4-Fluorobenzoyl)-3-piperidinecarboxylate] |  | 0.01 µg/mL | 10 µg/mL |  |
| CCOC(=O)C1CCCN(C(=O)c2cccs2)C1 (centres unmarked) [Example 8, Ethyl (2-Thiophenecarbonyl)-3-piperidinecarboxylate] | 100 ng/mL |  |  |  |
| CCOC(=O)C1CCCN(C(=O)Cc2cccs2)C1 (centres unmarked) [Example 9, Ethyl 1-(2-thiopheneacetyl)-3-piperidinecarboxylate] |  | 0.01 µg/mL | 1 µg/mL |  |
| CCOC(=O)C1CN(C(=O)OCc2ccccc2)CCC1=O (centres unmarked) [Example 10, Ethyl 1-Benzyloxycarbonyl-4-oxo-3-piperidinecarboxylate] |  | 0.01 µg/mL | 0.1 µg/mL |  |
| CCOC(=O)C1CN(C(=O)c2ccc(F)cc2)CCC1=O (centres unmarked) [Example 12, Ethyl 1-(4-Fluorobenzoyl)-4-oxo-3-piperidinecarboxylate] |  | 0.01 µg/mL | 0.1 µg/mL |  |
| CCCCOC(=O)C1CCCN(C(=O)c2ccccc2)C1 (centres unmarked) [Example 13, n-Butyl 1-Benzoyl-3-piperidinecarboxylate] |  | 0.01 µg/mL | 1 µg/mL |  |
| CCNC(=O)C1CCCN(C(=O)c2ccccc2)C1 (centres unmarked) [Example 17, N-Ethyl 1-Benzoyl-3-piperidinecarboxamide] |  | 1 µg/mL | 10 µg/mL |  |
| CCCCCCCCNC(=O)C1CCCN(C(=O)c2ccccc2)C1 (centres unmarked) [Example 18, N-(n-Octyl) 1-Benzoyl-3-piperidinecarboxamide] |  | 0.01 µg/mL | 0.1 µg/mL |  |
| CCNC(=O)C1CCCN(C(=O)Cc2cccs2)C1 (centres unmarked) [Example 20, N-Ethyl 1-(2-Thiopheneacetyl)-3-piperidinecarboxamide] |  | 0.1 µg/mL | 1 µg/mL |  |
| CCOC(=O)C1CCCN(C(=O)CCc2cccs2)C1 (centres unmarked) [Example 23, Ethyl 1-(3-(2-Thienyl)propionyl)3-piperidinecarboxylate] |  | 0.1 µg/mL | 1 µg/mL |  |
| CN(C)CCNC(=O)C1CCCN(C(=O)Cc2cccs2)C1 (centres unmarked) [Example 25, 2-Dimethylaminoethyl 1-(2-thiopheneacetyl)-3-piperidinecarboxamide] |  | 0.1 µg/mL | 1 µg/mL |  |

— patent US6664271B1, “Immunopotentiator agents” (Eli Lilly and Company, priority 1999, dated 2003)
